{"source": "patent US5905089A", "about": "“Use of sesquiterpene lactones for treatment of severe inflammatory disorders” (Board of Supervisors of Louisiana State University and …, priority 1998, dated 1999)", "key": {"TNFα": {"tested_on": "TNFα", "experiment": "LPS-induced TNFα production in alveolar macrophages (bioassay using L929 cells)", "format": "cell-based, Rat (Sprague-Dawley)", "conditions": "LPS 10 μg/ml, 16h, FIG. 2", "method": "(§1) Rat (Sprague-Dawley) alveolar macrophages were collected by broncho-alveolar lavage as described by Lee et al., J. Biol. Chem., vol. 267, pp. 25934-25938 (1992). The murine macrophage cell line RAW 264.7 (ATCC no. TIB-71) was cultured in Dubecco's modified Eagle's medium (DMEM) containing 10% heat-inactivated fetal bovine serum (FBS, Intergen). For the cyclooxygenase activity assay, cells were seeded in 24 well plates, and after near-confluency, cells were treated with aspirin (250 μM) for 2.5h to inactivate endogenous cyclooxygenase. […] COX activity was determined by measuring prostaglandin E2 concentrations in cells incubated with arachidonic acid (30 μM) for 10 minutes as described in Lee et al. (1992).\nRecovered COX activity in cells pretreated with aspirin reflected de novo synthesized COX-2. Alveolar macrophages pretreated with aspirin were incubated with LPS (10 μg/ml) and various concentrations of parthenolide for 16h. The activity of de novo synthesized COX-2 was determined by measuring the levels of PGE2 produced from exogenous arachidonic acid. Activity of TNFα was determined by bioassay using L929 cells as described by Aggarwal et al., J. Biol. Chem., vol. 260, pp. 2345-2354 (1985). […] Values in FIG. 2 are the means of triplicate samples for TNFα and duplicate samples for PGE2."}, "COX-2": {"tested_on": "COX-2", "experiment": "COX-2 protein expression in LPS-stimulated alveolar macrophages (immunoblot)", "format": "cell-based, Rat (Sprague-Dawley)", "conditions": "16h, FIG. 3A", "method": "as §1\n(§2) The protein levels of COX-2 and GAPDH were assessed by Western blot analysis using polyclonal antibodies as described in Lee et al. (1992). Polyclonal antibodies for IL-1α and JNK-1 were purchased from Genzyme and Santa Cruz Biotech, respectively.\n(§3) In FIG. 3A, alveolar macrophages were incubated with LPS and various concentrations of parthenolide for 16h. Solubilized proteins were analyzed by COX-2, IL-1α or GAPDH immunoblotting. FIG. 3A is a representative immunoblot of more than five different analyses. Data are shown for various concentrations of both parthenolide (PTN) and herbimycin A (HER). […]"}, "IL-1α [1]": {"tested_on": "IL-1α", "experiment": "IL-1α protein expression in LPS-stimulated alveolar macrophages (Western blot)", "format": "cell-based, Rat (Sprague-Dawley)", "conditions": "16h, FIG. 3A", "method": "as §1, §2, §3"}, "ERK-2": {"tested_on": "ERK-2", "experiment": "Tyrosine phosphorylation of ERK-2 in RAW 264.7 cells (antiphosphotyrosine immunoblot)", "format": "cell-based, murine", "conditions": "3h pretreatment, LPS 1 μg/ml 30 min; FIG. 5A", "method": "as §1\n(§4) This detection technique was carried out essentially as described in Chanmugan et al. (1995) using 4G10 monoclonal antiphosphotyrosine antibody (UBI) and the ECL detection system (Amersham).\n(§5) Parthenolide suppressed LPS-stimulated tyrosine phosphorylation of various proteins in RAW 264.7 cells as assessed by antiphosphotyrosine immunoblot, depicted in FIG. 5A. This inhibition was correlated with the suppressed expression of COX-2 and IL-1α. […] Therefore, the extent of tyrosine phosphorylation of JNK-1 was assessed by the electrophoretic mobility shift of phosphorylated JNK-1 as shown in FIG. 5B. […]"}, "MAPKs": {"tested_on": "MAPKs", "experiment": "Tyrosine phosphorylation / activation of MAPKs in RAW 264.7 cells", "format": "cell-based, murine", "conditions": "3h pretreatment (herbimycin A 0.5 μg/ml), LPS 1 μg/ml 30 min", "method": "as §1, §4\n(§6) Parthenolide suppressed LPS-stimulated tyrosine phosphorylation of various proteins in RAW 264.7 cells as assessed by antiphosphotyrosine immunoblot, depicted in FIG. 5A. This inhibition was correlated with the suppressed expression of COX-2 and IL-1α. RAW 264.7 cells were pretreated with parthenolide in various concentrations or with herbimycin A (0.5 μg/ml) for 3h, and then stimulated with LPS (1 μg/ml) in the presence of the inhibitors for 30 min. […] Therefore, the extent of tyrosine phosphorylation of JNK-1 was assessed by the electrophoretic mobility shift of phosphorylated JNK-1 as shown in FIG. 5B. Parthenolide inhibited tyrosine phosphorylation of JNK-1. Another protein tyrosine kinase inhibitor, herbimycin A ([…]), inhibited tyrosine phosphorylation of the MAPK subfamily.\nThe mechanism by which parthenolide inhibits protein tyrosine phosphorylation is not currently known. It has been speculated that the tyrosine kinase inhibitor herbimycin A inactivates p60^v-src kinase by irreversibly binding to the sulphydryl (SH) groups of p60^v-src kinase. Y. Uehara et al., Biochem. Biophys. Res. Commun., vol. 163, pp. 803-809 (1989). The inactivation by herbimycin may occur through conjugation between highly polarized double bonds in the benzoquinone moiety of herbimycin A and the SH group of sulphydryl compounds. Without wishing to be bound by this theory, the α-methylenebutyrolactone in parthenolide may interact with biological nucleophiles such as sulphydryl groups. Indeed, pretreating cells with sulphydryl compounds abrogated the inhibitory effect of parthenolide on LPS-induced activation of MAPKs as shown in FIG. 6A. In FIG. 6, RAW 264.7 cells were pretreated with parthenolide (1 μg/ml) in the presence of DTT (dithiothreitol, 100 μM), 2-ME (2-mercaptoethanol, 50 μM), or Cys (L-cysteine, 150 μM), and were then stimulated with LPS (1 μg/ml). Cells were incubated for 30 min for antiphosphotyrosine immunoblot analysis (FIG. 6A) and 8h for COX-2 and IL-1α Western blot analyses (FIG. 6B). […] Whether parthenolide inhibits protein tyrosine phosphorylation by directly inhibiting PTKs or by inhibiting other target protein(s) that affect the activity of PTKs is not currently known."}, "ERK-1": {"tested_on": "ERK-1", "experiment": "Kinase activity of ERK-1 in RAW 264.7 cells (in-gel kinase assay, MBP substrate)", "format": "cell-based, murine", "conditions": "3h pretreatment, LPS 1 μg/ml 30 min; FIG. 5", "method": "as §1\nThis assay was performed according to the method described by Kameshita et al., Anal. Biochem., vol. 183, pp. 139-143 (1989) using myelin basic protein (MBP) as a substrate.\nas §5"}, "IL-1α [2]": {"tested_on": "IL-1α", "experiment": "IL-1α expression in LPS-stimulated RAW 264.7 cells (Western blot)", "format": "cell-based, murine", "conditions": "LPS 1 μg/ml; FIG. 5D", "method": "as §1, §2, §6\nThe mechanism by which parthenolide inhibits protein tyrosine phosphorylation is not currently known. It has been speculated that the tyrosine kinase inhibitor herbimycin A inactivates p60^v-src kinase by irreversibly binding to the sulphydryl (SH) groups of p60^v-src kinase. Y. Uehara et al., Biochem. Biophys. Res. Commun., vol. 163, pp. 803-809 (1989). The inactivation by herbimycin may occur through conjugation between highly polarized double bonds in the benzoquinone moiety of herbimycin A and the SH group of sulphydryl compounds. Without wishing to be bound by this theory, the α-methylenebutyrolactone in parthenolide may interact with biological nucleophiles such as sulphydryl groups. Indeed, pretreating cells with sulphydryl compounds abrogated the inhibitory effect of parthenolide on LPS-induced activation of MAPKs as shown in FIG. 6A. […]"}, "[3]": {"tested_on": "Nuclear Factor-kB (NF-kB)", "experiment": "NF-kB activated by LPS in RAW 264.7 cells (degradation of IKBα)", "format": "cell-based, murine", "source_text": "Parthenolide inhibits Nuclear Factor--kB (NF-kB) transcription factor that has been activated by LPS in the murine macrophage cell line (RAW 264.7) as assessed by the degradation of the protein, IKBα. Activated NF-kB is known to induce the expression of many early response genes including inducible nitric oxide synthetase, cyclooxygenase, and chemokines that are implicated in acute inflammatory responses."}}}
{"smiles": "C=C1C(=O)O[C@H]2[C@H]1CC/C(C)=C/CC[C@@]1(C)O[C@@H]21", "note": "[Compound 1, Parthenolide]", "values": [{"measurement": "IC50, suppression of LPS-induced TNFα production", "setting": "TNFα", "result": 0.1, "unit": "µg/mL"}, {"measurement": "expression of COX-2 protein", "setting": "COX-2", "result": "dose-dependent inhibition"}, {"measurement": "expression of IL-1α protein", "setting": "IL-1α [1]; listed as Parthenolide", "result": "inhibited"}, {"measurement": "expression of IL-1α protein", "setting": "IL-1α [1]; listed as parthenolide", "result": "dose-dependent inhibition"}, {"measurement": "tyrosine phosphorylation of ERK-2", "setting": "ERK-2", "result": "inhibited by parthenolide in a dose-dependent manner"}, {"measurement": "tyrosine phosphorylation of the MAPK subfamily", "setting": "MAPKs", "result": "most dramatic inhibition"}, {"measurement": "kinase activity of ERK-1", "setting": "ERK-1", "result": "dose-dependent inhibition"}, {"measurement": "expression of IL-1α in RAW 264.7 cells", "setting": "IL-1α [2]", "result": "suppressed"}, {"measurement": "inhibition of NF-kB transcription factor activated by LPS", "setting": "[3]", "result": "inhibits"}]}
